Measured values: the CheMixHub viscosity set
± gives the uncertainty stated by the source.

Test: xn = mol fraction of the nth substance listed

CC(C)(C)N + O
Details | viscosity [mPa·s]
298 K, 101 kPa, x1 = 0.001 | 0.993 ± 0.013
298 K, 101 kPa, x1 = 0.01 | 1.068 ± 0.013
298 K, 101 kPa, x1 = 0.02 | 1.269 ± 0.014
298 K, 101 kPa, x1 = 0.03 | 1.527 ± 0.016
298 K, 101 kPa, x1 = 0.04 | 1.698 ± 0.017
298 K, 101 kPa, x1 = 0.05 | 1.89 ± 0.018
298 K, 101 kPa, x1 = 0.06 | 2.059 ± 0.019
298 K, 101 kPa, x1 = 0.08 | 2.363 ± 0.022
298 K, 101 kPa, x1 = 0.1 | 2.604 ± 0.023
298 K, 101 kPa, x1 = 0.15 | 2.992 ± 0.026
298 K, 101 kPa, x1 = 0.2 | 3.112 ± 0.027
298 K, 101 kPa, x1 = 0.25 | 3.057 ± 0.027
298 K, 101 kPa, x1 = 0.3 | 2.832 ± 0.025
298 K, 101 kPa, x1 = 0.4 | 2.211 ± 0.021
298 K, 101 kPa, x1 = 0.5 | 1.642 ± 0.017
298 K, 101 kPa, x1 = 0.6 | 1.195 ± 0.014
298 K, 101 kPa, x1 = 0.7 | 0.881 ± 0.012
298 K, 101 kPa, x1 = 0.8 | 0.677 ± 0.011
298 K, 101 kPa, x1 = 0.85 | 0.594 ± 0.011
298 K, 101 kPa, x1 = 0.9 | 0.534 ± 0.011
298 K, 101 kPa, x1 = 0.92 | 0.523 ± 0.011
298 K, 101 kPa, x1 = 0.95 | 0.48 ± 0.011
298 K, 101 kPa, x1 = 0.97 | 0.462 ± 0.011
298 K, 101 kPa, x1 = 0.98 | 0.456 ± 0.011
298 K, 101 kPa, x2 = 0.01 | 0.445 ± 0.011
298.15 K, 101.33 kPa, x1 = 0.1001 | 2.654 ± 0.016
298.15 K, 101.33 kPa, x1 = 0.2002 | 3.163 ± 0.019
298.15 K, 101.33 kPa, x1 = 0.2998 | 2.906 ± 0.019
298.15 K, 101.33 kPa, x1 = 0.3996 | 2.294 ± 0.017
298.15 K, 101.33 kPa, x1 = 0.5 | 1.69 ± 0.014
298.15 K, 101.33 kPa, x1 = 0.5999 | 1.229 ± 0.011
298.15 K, 101.33 kPa, x1 = 0.6984 | 0.9094 ± 0.0088
298.15 K, 101.33 kPa, x1 = 0.7998 | 0.6936 ± 0.0073
298.15 K, 101.33 kPa, x1 = 0.9 | 0.5459 ± 0.0063
303 K, 101 kPa, x1 = 0.001 | 0.81 ± 0.012
303 K, 101 kPa, x1 = 0.01 | 0.947 ± 0.013
303 K, 101 kPa, x1 = 0.02 | 1.116 ± 0.013
303 K, 101 kPa, x1 = 0.03 | 1.29 ± 0.014
303 K, 101 kPa, x1 = 0.04 | 1.455 ± 0.015
303 K, 101 kPa, x1 = 0.05 | 1.606 ± 0.016
303 K, 101 kPa, x1 = 0.06 | 1.745 ± 0.017
303 K, 101 kPa, x1 = 0.08 | 1.986 ± 0.019
303 K, 101 kPa, x1 = 0.1 | 2.189 ± 0.02
303 K, 101 kPa, x1 = 0.15 | 2.516 ± 0.022
303 K, 101 kPa, x1 = 0.2 | 2.622 ± 0.023
303 K, 101 kPa, x1 = 0.25 | 2.57 ± 0.023
303 K, 101 kPa, x1 = 0.3 | 2.392 ± 0.021
303 K, 101 kPa, x1 = 0.4 | 1.901 ± 0.018
303 K, 101 kPa, x1 = 0.5 | 1.419 ± 0.015
303 K, 101 kPa, x1 = 0.6 | 1.06 ± 0.013
303 K, 101 kPa, x1 = 0.7 | 0.787 ± 0.012
303 K, 101 kPa, x1 = 0.8 | 0.609 ± 0.011
303 K, 101 kPa, x1 = 0.85 | 0.543 ± 0.011
303 K, 101 kPa, x1 = 0.9 | 0.49 ± 0.011
303 K, 101 kPa, x1 = 0.92 | 0.47 ± 0.011
303 K, 101 kPa, x1 = 0.95 | 0.442 ± 0.011
303 K, 101 kPa, x1 = 0.97 | 0.426 ± 0.011
303 K, 101 kPa, x1 = 0.98 | 0.419 ± 0.011
303 K, 101 kPa, x2 = 0.01 | 0.417 ± 0.011
303.15 K, 101.33 kPa, x1 = 0.1001 | 2.222 ± 0.014
303.15 K, 101.33 kPa, x1 = 0.2002 | 2.645 ± 0.017
303.15 K, 101.33 kPa, x1 = 0.2998 | 2.422 ± 0.017
303.15 K, 101.33 kPa, x1 = 0.3996 | 1.935 ± 0.014
303.15 K, 101.33 kPa, x1 = 0.5 | 1.453 ± 0.012
303.15 K, 101.33 kPa, x1 = 0.5999 | 1.076 ± 0.0096
303.15 K, 101.33 kPa, x1 = 0.6984 | 0.8077 ± 0.0079
303.15 K, 101.33 kPa, x1 = 0.7998 | 0.6226 ± 0.0066
303.15 K, 101.33 kPa, x1 = 0.9 | 0.5017 ± 0.0058
308 K, 101 kPa, x1 = 0.001 | 0.73 ± 0.012
308 K, 101 kPa, x1 = 0.01 | 0.846 ± 0.012
308 K, 101 kPa, x1 = 0.02 | 0.99 ± 0.013
308 K, 101 kPa, x1 = 0.03 | 1.132 ± 0.014
308 K, 101 kPa, x1 = 0.04 | 1.263 ± 0.014
308 K, 101 kPa, x1 = 0.05 | 1.394 ± 0.015
308 K, 101 kPa, x1 = 0.06 | 1.571 ± 0.016
308 K, 101 kPa, x1 = 0.08 | 1.718 ± 0.017
308 K, 101 kPa, x1 = 0.1 | 1.871 ± 0.018
308 K, 101 kPa, x1 = 0.15 | 2.168 ± 0.021
308 K, 101 kPa, x1 = 0.2 | 2.211 ± 0.021
308 K, 101 kPa, x1 = 0.25 | 2.16 ± 0.02
308 K, 101 kPa, x1 = 0.3 | 2.061 ± 0.02
308 K, 101 kPa, x1 = 0.4 | 1.643 ± 0.017
308 K, 101 kPa, x1 = 0.5 | 1.24 ± 0.014
308 K, 101 kPa, x1 = 0.7 | 0.712 ± 0.011
308 K, 101 kPa, x1 = 0.8 | 0.566 ± 0.011
308 K, 101 kPa, x1 = 0.85 | 0.499 ± 0.011
308 K, 101 kPa, x1 = 0.9 | 0.451 ± 0.011
308 K, 101 kPa, x1 = 0.92 | 0.433 ± 0.011
308 K, 101 kPa, x1 = 0.95 | 0.41 ± 0.011
308 K, 101 kPa, x1 = 0.97 | 0.396 ± 0.011
308 K, 101 kPa, x1 = 0.98 | 0.389 ± 0.011
308 K, 101 kPa, x2 = 0.01 | 0.383 ± 0.011
308.15 K, 101.33 kPa, x1 = 0.1001 | 1.888 ± 0.012
308.15 K, 101.33 kPa, x1 = 0.2002 | 2.229 ± 0.014
308.15 K, 101.33 kPa, x1 = 0.2998 | 2.058 ± 0.014
308.15 K, 101.33 kPa, x1 = 0.3996 | 1.655 ± 0.012
308.15 K, 101.33 kPa, x1 = 0.5 | 1.258 ± 0.01
308.15 K, 101.33 kPa, x1 = 0.5999 | 0.9485 ± 0.0085
308.15 K, 101.33 kPa, x1 = 0.6984 | 0.726 ± 0.0071
308.15 K, 101.33 kPa, x1 = 0.7998 | 0.5736 ± 0.0062

CC#N + CCCCO
viscosity [mPa·s]
Details | 298.15 K | 303.15 K | 308.15 K | 313.15 K | 318.15 K | 323.15 K
101 kPa, x1 = 0.055 | 2.123 ± 0.027 | 1.695 ± 0.022 | 1.365 ± 0.018 | – | – | –
101 kPa, x1 = 0.0999 | – | 1.696 ± 0.012 | 1.517 ± 0.011 | 1.364 ± 0.01 | 1.231 ± 0.009 | 1.111 ± 0.008
101 kPa, x1 = 0.1178 | 1.764 ± 0.022 | 1.422 ± 0.018 | 1.159 ± 0.014 | – | – | –
101 kPa, x1 = 0.1952 | 1.449 ± 0.017 | 1.186 ± 0.014 | 0.978 ± 0.012 | – | – | –
101 kPa, x1 = 0.2 | – | 1.322 ± 0.01 | 1.197 ± 0.009 | 1.085 ± 0.008 | 0.986 ± 0.007 | 0.9 ± 0.006
101 kPa, x1 = 0.2302 | 1.322 ± 0.016 | 1.086 ± 0.013 | 0.899 ± 0.011 | – | – | –
101 kPa, x1 = 0.2997 | – | 1.054 ± 0.008 | 0.957 ± 0.007 | 0.876 ± 0.006 | 0.803 ± 0.006 | 0.738 ± 0.005
101 kPa, x1 = 0.3526 | 1.016 ± 0.012 | 0.854 ± 0.01 | 0.721 ± 0.008 | – | – | –
101 kPa, x1 = 0.4 | – | 0.842 ± 0.006 | 0.781 ± 0.006 | 0.723 ± 0.005 | 0.667 ± 0.005 | 0.619 ± 0.005
101 kPa, x1 = 0.4775 | 0.792 ± 0.009 | 0.681 ± 0.008 | 0.585 ± 0.007 | – | – | –
101 kPa, x1 = 0.5 | – | 0.695 ± 0.005 | 0.643 ± 0.005 | 0.601 ± 0.005 | 0.555 ± 0.004 | 0.519 ± 0.004
101 kPa, x1 = 0.5911 | 0.615 ± 0.007 | 0.538 ± 0.006 | 0.472 ± 0.005 | – | – | –
101 kPa, x1 = 0.5998 | – | 0.574 ± 0.005 | 0.536 ± 0.004 | 0.502 ± 0.004 | 0.47 ± 0.004 | 0.442 ± 0.004
101 kPa, x1 = 0.6999 | – | 0.482 ± 0.004 | 0.453 ± 0.004 | 0.427 ± 0.004 | 0.402 ± 0.004 | 0.381 ± 0.003
101 kPa, x1 = 0.7026 | 0.504 ± 0.006 | 0.445 ± 0.005 | 0.397 ± 0.005 | – | – | –
101 kPa, x1 = 0.7906 | 0.433 ± 0.005 | 0.391 ± 0.005 | 0.352 ± 0.004 | – | – | –
101 kPa, x1 = 0.8 | – | 0.413 ± 0.004 | 0.391 ± 0.004 | 0.374 ± 0.003 | 0.354 ± 0.003 | 0.336 ± 0.003
101 kPa, x1 = 0.9 | – | 0.362 ± 0.003 | 0.345 ± 0.003 | 0.329 ± 0.003 | 0.315 ± 0.003 | 0.301 ± 0.003
101 kPa, x1 = 0.9094 | 0.383 ± 0.004 | 0.348 ± 0.004 | 0.32 ± 0.004 | – | – | –
101.3 kPa, x1 = 0.1671 | 1.475 ± 0.035 | 1.336 ± 0.032 | 1.204 ± 0.029 | – | – | –
101.3 kPa, x1 = 0.311 | 1.029 ± 0.025 | 0.937 ± 0.023 | 0.849 ± 0.022 | – | – | –
101.3 kPa, x1 = 0.4362 | 0.77 ± 0.02 | 0.706 ± 0.018 | 0.65 ± 0.017 | – | – | –
101.3 kPa, x1 = 0.5462 | 0.605 ± 0.016 | 0.566 ± 0.015 | 0.535 ± 0.015 | – | – | –
101.3 kPa, x1 = 0.6436 | 0.484 ± 0.014 | 0.457 ± 0.013 | 0.431 ± 0.012 | – | – | –
101.3 kPa, x1 = 0.7303 | 0.441 ± 0.013 | 0.408 ± 0.012 | 0.391 ± 0.012 | – | – | –
101.3 kPa, x1 = 0.8082 | 0.403 ± 0.012 | 0.381 ± 0.011 | 0.361 ± 0.011 | – | – | –
101.3 kPa, x1 = 0.8784 | 0.387 ± 0.012 | 0.367 ± 0.011 | – | – | – | –
101.3 kPa, x1 = 0.942 | 0.348 ± 0.011 | 0.327 ± 0.01 | – | – | – | –
